Data reported in patent US9447068B2, “Functionalized polymer compositions” (Novus International Inc., priority 2012, dated 2016).

System: Ross 708 male broilers
Test: In vivo efficacy study in chickens: methionine source in methionine-deficient diet
Conditions: young broilers, 0 to 14 days of age, 0.15% added methionine, diet deficient in methionine (0.26%)
Experimental: HMTBA homopolymer was compared to HMTBA calcium salt (MHA) in young broilers chicks as methionine source with a diet deficient in dietary methionine (0.26%) as negative control. A total of 108 Ross 708 male broilers were randomly assigned to 18 battery pens with 6 birds per pen. Six replicate pens were fed one of the 3 test diets from 0 to 14 days of age. HMTBA and MHA were added at equal molar basis to provide 0.15% added methionine. Growth performance parameters including body weight, feed conversion ratio (FCR), feed intake, and mortality, were measured and the body weight and FCR results are shown in FIG. 4.

For `CSCCC(O)C(=O)[O-].CSCCC(O)C(=O)[O-].[Ca+2]` (stereo not shown) [MHA, HMTBA calcium salt], the body weight was “significantly increased”, the “feed conversion ratio (FCR)” value was “significantly improved” and the performance index was “significantly increased”. For the same molecule, the weight gain was “significantly increased”.
